In ChEMBL document CHEMBL5576072, “Discovery of a potent and selective JAK1-targeting PROTAC degrader with anti-tumor activities” (Bioorg Med Chem Lett, 2024):
The source made the active and inactive calls. The rule behind the calls is not given here.

Tests used:
THP-1 = assay: Antiproliferative activity against human THP-1 cells
[1] = target: T1, Signal transducer and activator of transcription 1-alpha/beta (Homo sapiens) (UniProt P42224); assay: Inhibition of STAT1 phosphorylation in HEL cells at 1 uM pretreated with momelotinib followed by compound addition and measured after 24 hrs by Western blotting analysis; type: cell-based
T1 sequence (whole entry): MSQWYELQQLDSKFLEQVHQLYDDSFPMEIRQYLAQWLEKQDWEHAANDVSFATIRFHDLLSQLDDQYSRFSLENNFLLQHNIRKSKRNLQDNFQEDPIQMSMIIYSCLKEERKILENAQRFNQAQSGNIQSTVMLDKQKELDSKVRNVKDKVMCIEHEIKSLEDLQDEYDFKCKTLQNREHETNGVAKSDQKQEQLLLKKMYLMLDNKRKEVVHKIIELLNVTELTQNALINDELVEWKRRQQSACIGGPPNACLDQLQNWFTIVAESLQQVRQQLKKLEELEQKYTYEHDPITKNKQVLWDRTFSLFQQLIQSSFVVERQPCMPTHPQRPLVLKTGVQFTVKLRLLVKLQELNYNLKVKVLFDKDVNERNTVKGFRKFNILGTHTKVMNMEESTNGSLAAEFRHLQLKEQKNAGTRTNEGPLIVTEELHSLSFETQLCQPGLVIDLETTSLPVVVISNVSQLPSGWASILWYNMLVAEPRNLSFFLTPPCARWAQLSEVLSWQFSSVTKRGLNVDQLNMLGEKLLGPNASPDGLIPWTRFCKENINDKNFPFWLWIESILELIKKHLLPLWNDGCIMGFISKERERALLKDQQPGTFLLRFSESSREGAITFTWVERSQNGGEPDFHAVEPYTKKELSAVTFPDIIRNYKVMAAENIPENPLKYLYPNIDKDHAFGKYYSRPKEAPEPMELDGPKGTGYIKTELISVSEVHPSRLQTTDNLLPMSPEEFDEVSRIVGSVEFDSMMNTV

K562 = assay: Antiproliferative activity against human K562 cells
HEL = assay: Antiproliferative activity against HEL cells; conditions: Homo sapiens
[2] = target: T1, Signal transducer and activator of transcription 1-alpha/beta (Homo sapiens); assay: Inhibition of STAT1 phosphorylation in HEL cells at 1 uM incubated for 24 hrs by Western blotting analysis; type: cell-based
[3] = target: T1, Signal transducer and activator of transcription 1-alpha/beta (Homo sapiens); assay: Inhibition of STAT1 phosphorylation in HEL cells at 1 uM pretreated with MG132 followed by compound addition and measured after 24 hrs by Western blotting analysis; type: cell-based
[4] = target: Signal transducer and activator of transcription 3 (Homo sapiens) (UniProt P40763); assay: Inhibition of STAT3 phosphorylation in HEL cells at 1 uM incubated for 24 hrs by Western blotting analysis; type: cell-based
[5] = target: Signal transducer and activator of transcription 3 (Homo sapiens) (UniProt P40763); assay: Inhibition of STAT3 phosphorylation in HEL cells at 1 uM pretreated with momelotinib followed by compound addition and measured after 24 hrs by Western blotting analysis; type: cell-based
[6] = target: Signal transducer and activator of transcription 3 (Homo sapiens) (UniProt P40763); assay: Inhibition of STAT3 phosphorylation in HEL cells at 1 uM pretreated with MG132 followed by compound addition and measured after 24 hrs by Western blotting analysis; type: cell-based

Signal transducer and activator of transcription 3 (Homo sapiens), sequence (P40763 whole entry): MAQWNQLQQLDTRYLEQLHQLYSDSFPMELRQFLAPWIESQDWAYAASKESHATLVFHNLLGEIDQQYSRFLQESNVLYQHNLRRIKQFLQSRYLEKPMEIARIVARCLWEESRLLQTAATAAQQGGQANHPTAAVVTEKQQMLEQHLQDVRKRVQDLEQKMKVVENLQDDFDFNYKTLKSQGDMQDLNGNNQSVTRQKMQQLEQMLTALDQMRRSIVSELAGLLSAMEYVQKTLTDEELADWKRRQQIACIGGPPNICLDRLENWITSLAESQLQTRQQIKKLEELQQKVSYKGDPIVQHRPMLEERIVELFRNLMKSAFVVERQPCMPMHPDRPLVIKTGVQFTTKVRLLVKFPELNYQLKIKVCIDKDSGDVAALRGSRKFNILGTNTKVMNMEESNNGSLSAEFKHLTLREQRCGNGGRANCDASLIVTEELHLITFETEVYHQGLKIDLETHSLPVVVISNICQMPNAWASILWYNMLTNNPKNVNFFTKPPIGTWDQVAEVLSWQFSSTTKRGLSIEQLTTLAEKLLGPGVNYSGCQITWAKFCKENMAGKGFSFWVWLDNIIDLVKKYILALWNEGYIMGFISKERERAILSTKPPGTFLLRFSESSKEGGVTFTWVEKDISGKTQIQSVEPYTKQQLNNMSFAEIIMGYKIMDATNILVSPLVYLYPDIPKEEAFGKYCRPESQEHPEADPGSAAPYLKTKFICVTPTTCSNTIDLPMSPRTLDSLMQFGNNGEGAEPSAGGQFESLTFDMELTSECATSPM

Row | Compound | IC50 (THP-1) | inhibition [1] | IC50 (K562) | IC50 (HEL) | inhibition [2] | inhibition [3] | inhibition [4] | inhibition [5] | inhibition [6]
1 | N#CCNC(=O)c1ccc(-c2ccnc(Nc3ccc(N4CCC(C(=O)NCCCCC#Cc5cccc6c5C(=O)N(C5CCC(=O)NC5=O)C6=O)CC4)cc3)n2)cc1 (stereo not given) | 10.5 µM | inactive | 6.1 µM | 1.3 µM | Active | inactive | Active | inactive | inactive
2 | N#CCNC(=O)c1ccc(-c2ccnc(Nc3ccc(N4CCC(C(=O)NCCCCCC#Cc5cccc6c5C(=O)N(C5CCC(=O)NC5=O)C6=O)CC4)cc3)n2)cc1 (stereo not given) | > 50 µM | – | > 50 µM | > 50 µM | – | – | – | – | –
3 | N#CCNC(=O)c1ccc(-c2ccnc(Nc3ccc(N4CCC(C(=O)NCCCC#Cc5cccc6c5C(=O)N(C5CCC(=O)NC5=O)C6=O)CC4)cc3)n2)cc1 (stereo not given) | > 50 µM | – | 45.1 µM | 37.1 µM | – | – | – | – | –
